Patent US8653138B2, “Calcium salts of compounds as anti-inflammatory, immunomodulatory and anti-proliferatory agents” (4SC MG, priority 2010, dated 2014)
Values after ≈ are worked out from the molar mass of the structure shown. Counter-ions that a name gives are not always drawn.

Legend:
[1] = Aqueous solubility (OECD Guideline 105); format: physicochemical; conditions: water, 24 h at 23° C., HPLC-UV
Description: Aqueous solubilities of Vidofludimus free acid (2-(3-Fluoro-3′-methoxybiphenyl-4-ylcarbamoyl)-cyclopent-1-enecarboxylic acid), its potassium salt and its Calcium salt were examined. The principle of the method was based on the OECD Guideline for the testing of chemicals, 105 “Water Solubility”. 2 mg of the experimental compounds were weighed into Eppendorf vials of 1.5 ml. Subsequently, water was added to arrive at a concentration of 5 mg/ml. After preparation of the solubility samples they were incubated for 24 h at 23° C. under continuous shaking. Then the samples were centrifuged to separate the precipitate from the dissolved compound. The supernatants were transferred into labelled HPLC vials for quantification by HPLC-UV. Finally, these HPLC samples were analysed on the HPLC-UV System and their contents were calculated from the calibration curves, The concentration of compound in the supernatant equals its solubility in water. The following aqueous solubilities were found for Vidofludimus free acid and its potassium-and calcium salt: […]

[2] = Dynamic vapor sorption (DVS); format: physicochemical
Excerpt: DVS (SMS): Surface Measurement Systems Ltd. DVS-1 water vapour sorption analyzer. The sample is placed on a platinum sample pan and allowed to equilibrate at a given relative humidity (r.h.), usually 50% r.h. Then, a pre-defined humidity program was started with a scanning rate of 5% r.h. change per hour. First step: from 50% r.h. to 0% r.h, (in case of a possibly hydrate as starting material 50 to 95% r.h.), second step: from 0% to 95% r.h. (in case of a possibly hydrate as starting material 95 to 0% r.h.)

recombinant human DHODH = biological target: T1, recombinant human DHODH (Homo sapiens, UniProt Q02127); test: Inhibition assay of DHODH activity, human enzyme; format: biochemical; conditions: class symbol (head prints μM, key in nM)
T1 construct: provided by Prof; M. Löffler, Marburg, Germany (gift, not a commercial vendor)
Description: The standard assay mixture contained 50 μM decyclo ubichinone, 100 μM dihydroorotate, 60 μM 2,6-dichloroindophenol, as well as 20 mU DHODH. The volume activity of the recombinant enzyme used was 30 U/ml. Measurements were conducted in 50 mM TrisHCl (150 mM KCl, 0.1% Triton X-100, pH 8.0) at 30° C. in a final volume of 1 ml. The components were mixed, and the reaction was started by adding dihydroorotate. The course of reaction was followed by spectrophotometrically measuring the decrease in absorption at 600 nm for 2 min.
Inhibitory studies were conducted in a standard assay with additional variable amounts of inhibitor.
These investigations were carried out with recombinant human as well as with recombinant murine DHODH provided by Prof. M. Löffler, Marburg, Germany [M. Löffler, Chem. Biol. Interact.

T1 sequence (Q02127 whole entry): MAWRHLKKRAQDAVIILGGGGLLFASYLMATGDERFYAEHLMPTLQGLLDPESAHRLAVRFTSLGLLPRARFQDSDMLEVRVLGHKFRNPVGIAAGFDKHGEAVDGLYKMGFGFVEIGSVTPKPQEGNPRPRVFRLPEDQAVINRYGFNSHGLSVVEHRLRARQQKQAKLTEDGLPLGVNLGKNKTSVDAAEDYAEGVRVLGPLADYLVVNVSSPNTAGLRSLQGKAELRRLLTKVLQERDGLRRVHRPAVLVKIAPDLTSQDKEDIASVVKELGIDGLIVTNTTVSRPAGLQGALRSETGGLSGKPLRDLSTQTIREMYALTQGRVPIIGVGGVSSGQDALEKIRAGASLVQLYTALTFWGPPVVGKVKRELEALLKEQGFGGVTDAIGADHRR

Row | SMILES | Solubility [1] [µg/mL] | IC50 (recombinant human DHODH) [µM] | other results
1 | COc1cccc(-c2ccc(NC(=O)C3=C(C(=O)O)CCC3)c(F)c2)c1 [Calcium salt, calcium salt of 2-(3-Fluoro-3′-methoxy-biphenyl-4-ylcarbamoyl)-cyclopent-1-enecarboxylic acid] | 16.2 |  | water uptake ([2]; at 95% r.h. (not reversible)): 0.4%; water uptake ([2]; at about 85% r.h., after desolvation): 0.3%
2 | COc1cccc(-c2ccc(NC(=O)C3=C(C(=O)O)CCC3)c(F)c2)c1 [Compound 26, 2-((3-fluoro-3′-methoxy-[1,1′-biphenyl]-4-yl)carbamoyl)cyclopent-1-enecarboxylic acid] |  |  | Solubility ([1]; listed as Vidofludimus free acid): 9.5 µg/mL (≈ 26.7 µM)
3 | O=C(O)C1=C(C(=O)Nc2ccc(OCc3ccccc3)c(Cl)c2)CCC1 [Compound 72] |  | < 0.8 | 
4 | O=C(O)C1=C(C(=O)Nc2ccc(OCc3ccccc3F)c(Cl)c2)CCC1 [Compound 74, 2-((3-chloro-4-((2-fluorobenzyl)oxy)phenyl)carbamoyl)cyclopent-1-enecarboxylic acid] |  | < 0.8 | 
5 | COc1ccccc1-c1ccc(OC(=O)C2=C(C(=O)O)CCC2)c(F)c1 [Compound 76] |  | < 0.8 | 
6 | COc1cccc(-c2ccc(NC(=O)C3=C(C(=O)O)CCC3)c(F)c2)c1 [Potassium salt] | 4700 |  | 
